Results published in PubChem BioAssay (NCI).
“And” between values parts separate entries of the source, which are not always exact repeats. Equal values may be shown once.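 Exposure lasted 48 hours, with cells grown in 96-well plates and compounds tested at five concentrations. GI50: concentration for 50% inhibition of growth. TGI marks complete inhibition of growth.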

Legend:
Assay in all cases: DTP human tumour cell line panel, 48 h
TK-10 renal = tested on: TK-10 renal
MDA-MB-231 breast = tested on: MDA-MB-231 breast
SW-620 colon = tested on: SW-620 colon
KM12 colon = tested on: KM12 colon
SF-295 CNS = tested on: SF-295 CNS
UACC-62 melanoma = tested on: UACC-62 melanoma
MDA-MB-435 = tested on: MDA-MB-435
PC-3 prostate = tested on: PC-3 prostate
HS 578T breast = tested on: HS 578T breast
HT29 colon = tested on: HT29 colon

Compound	GI50 (TK-10 renal)	TGI (TK-10 renal)	GI50 (MDA-MB-231 breast)	TGI (MDA-MB-231 breast)	GI50 (SW-620 colon)	TGI (SW-620 colon)	GI50 (KM12 colon)	TGI (KM12 colon)	GI50 (SF-295 CNS)	TGI (SF-295 CNS)	GI50 (UACC-62 melanoma)	GI50 (MDA-MB-435)	TGI (MDA-MB-435)	GI50 (PC-3 prostate)	TGI (PC-3 prostate)	GI50 (HS 578T breast)	TGI (HS 578T breast)	GI50 (HT29 colon)	TGI (HT29 colon)	TGI (UACC-62 melanoma)
O=C(NOC[C@H](O)CO)c1ccc(F)c(F)c1Nc1ccc(I)cc1F	0.0314 µM and 0.0174 µM	86.2 µM and > 10 µM	0.16 µM and 0.0347 µM	62.7 µM and > 10 µM	< 0.01 µM and 0.00315 µM	> 100 µM	0.0456 µM and 0.036 µM	> 100 µM	14.5 µM and > 10 µM	> 100 µM	< 0.01 µM and 0.00155 µM	< 0.01 µM and 0.00416 µM	> 100 µM	62.6 µM and > 10 µM	> 100 µM	34.5 µM and > 2.97 µM	> 100 µM	< 0.01 µM and 0.00291 µM	> 100 µM	
COc1cc2c(c(OC)c1OC)-c1ncc3c(OC)c(OC)c(OC)cc3c1C2	22.5 µM	63.5 µM	26.2 µM	86.8 µM	37 µM	> 100 µM	16.1 µM	40.4 µM	22 µM	47.1 µM	21.1 µM	23 µM	73.5 µM	33.7 µM	> 100 µM	29.9 µM	67.3 µM			49.3 µM
O=S(=O)(NC1=NCCN1C(=S)SN1CCn2c1nsc2=S)c1cccc2ccccc12	21.4 µM	64.8 µM	14.7 µM	32.5 µM	33.2 µM	> 100 µM	17.3 µM	41.4 µM	18.4 µM	71.1 µM	21 µM	17.4 µM	39.9 µM	29.2 µM	> 100 µM	25.5 µM	> 100 µM	31.4 µM	> 100 µM	71.6 µM
CCOC(=O)C(Cc1c[nH]c2c(N(CCO)CCO)cccc12)(NC(C)=O)C(=O)OCC	> 1000 µM	> 1000 µM	692 µM	> 1000 µM	431 µM	> 1000 µM	302 µM	978 µM	148 µM	> 1000 µM	263 µM	167 µM	311 µM	409 µM	> 1000 µM	302 µM	> 1000 µM	140 µM	417 µM	> 1000 µM
O=C(/C=C/c1ccccc1)C(Br)C(Br)c1ccccc1 (stereo not drawn)			1.73 µM	3.51 µM	0.402 µM	1.59 µM	2.07 µM	4.38 µM	2.95 µM	10.5 µM	1.64 µM	1.49 µM	3.08 µM	2.69 µM	8.69 µM	2.36 µM	7.7 µM	1.04 µM	2.48 µM	3.29 µM
O=c1c2cc(F)ccc2sc2c(N3CCNCC3)nc3ccc(F)cc3c12	1.94 µM	3.47 µM	1.42 µM	2.79 µM	1.61 µM	3.12 µM	1.79 µM	3.34 µM	1.78 µM	3.22 µM	1.74 µM	1.74 µM	3.2 µM	1.7 µM	3.3 µM	1.7 µM	3.6 µM	1.65 µM	3.22 µM	3.19 µM
COc1ccc(C2OC(=O)c3ccc4ccccc4c32)c(C)c1 (stereo not drawn)		> 95.3 µM		> 100 µM		> 72.9 µM		> 45.6 µM		14.7 µM			6.02 µM		> 100 µM		45.2 µM		15.1 µM	> 100 µM
CCOC(=O)c1cc2cc3c4c(c2oc1=O)CCCN4CCC3		> 100 µM		69.2 µM		> 100 µM		61.9 µM		> 100 µM			83.5 µM		97.5 µM		89.2 µM		> 100 µM	
O=C1CC2C(=O)c3ccccc3CC2c2ccccc21 (stereo not drawn)		> 100 µM		> 100 µM		> 100 µM		> 100 µM		> 100 µM			55.3 µM		> 100 µM		> 100 µM		> 100 µM	> 100 µM
COc1cc2ncn(-c3cc(OCc4ccccc4C(F)(F)F)c(C(=O)N(C)C)s3)c2cc1OC	> 22.6 µM	> 25 µM	10.9 µM	> 25 µM	> 25 µM	> 25 µM	> 25 µM	> 25 µM	> 22.6 µM	> 25 µM	21.6 µM	> 25 µM	> 25 µM	> 19 µM	> 25 µM	> 25 µM	> 25 µM	> 25 µM	> 25 µM	> 25 µM
Cn1c(C(=O)c2ccncc2)cc2ccccc21	> 100 µM	> 100 µM	66.5 µM	> 100 µM	52.8 µM	> 100 µM	75.5 µM	> 100 µM	> 100 µM	> 100 µM	83.5 µM	> 100 µM	> 100 µM	80.7 µM	> 100 µM	65 µM	> 100 µM	92.8 µM	> 100 µM	> 100 µM
O=[N+]([O-])c1cc(Cl)c2[nH]c3c(Cl)cc([N+](=O)[O-])cc3c2c1	0.356 µM	19.1 µM	0.482 µM	8.89 µM	0.576 µM	> 100 µM	0.354 µM	> 100 µM	0.229 µM	1.99 µM	0.247 µM	0.31 µM		0.379 µM	> 100 µM	0.609 µM	> 100 µM	0.431 µM	> 100 µM	> 100 µM
Nc1nonc1-c1nc2cnccc2n1C1CC1	0.636 µM	> 20.3 µM	8.75 µM	> 25 µM	5.42 µM	> 25 µM	6.46 µM	> 20.9 µM	7.38 µM	> 25 µM	7.59 µM	11.2 µM	> 25 µM	17.7 µM	> 25 µM	1.16 µM	9.54 µM	5.87 µM	> 25 µM	> 25 µM
COc1ccc(-c2ccncc2)cc1C(N)=O	> 25 µM	> 25 µM	> 25 µM	> 25 µM	> 25 µM	> 25 µM	> 25 µM	> 25 µM	> 25 µM	> 25 µM	> 25 µM	> 25 µM	> 25 µM	> 25 µM	> 25 µM	> 25 µM	> 25 µM	> 25 µM	> 25 µM	> 25 µM
